Measured values published in US20240238241A1, “PHARMACEUTICAL COMPOSITION FOR TREATMENT OF PANCREATIC CANCER AND BILE DUCT CANCER” (JAPAN SCIENCE AND TECHNOLOGY AGENCY, priority 2021, published 2024).

Key:
ZIC5 protein [1] = biological target: T1, ZIC5 protein (Homo sapiens, UniProt Q96T25); test: secondary screening: ZIC5 protein quantified by anti-ZIC5 immunostaining and imaging cytometer in A375 cells overexpressing ZIC5; settings: A-375, read-out: ZIC5 Protein Amount (Relative Value);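 further: compounds added at 0.1, 1, 5 or 10 µM to A375 cells overexpressing ZIC5 without a fusion tag, cells fixed the next day, ND means cells died before measurement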
T1 sequence (Q96T25 1-639): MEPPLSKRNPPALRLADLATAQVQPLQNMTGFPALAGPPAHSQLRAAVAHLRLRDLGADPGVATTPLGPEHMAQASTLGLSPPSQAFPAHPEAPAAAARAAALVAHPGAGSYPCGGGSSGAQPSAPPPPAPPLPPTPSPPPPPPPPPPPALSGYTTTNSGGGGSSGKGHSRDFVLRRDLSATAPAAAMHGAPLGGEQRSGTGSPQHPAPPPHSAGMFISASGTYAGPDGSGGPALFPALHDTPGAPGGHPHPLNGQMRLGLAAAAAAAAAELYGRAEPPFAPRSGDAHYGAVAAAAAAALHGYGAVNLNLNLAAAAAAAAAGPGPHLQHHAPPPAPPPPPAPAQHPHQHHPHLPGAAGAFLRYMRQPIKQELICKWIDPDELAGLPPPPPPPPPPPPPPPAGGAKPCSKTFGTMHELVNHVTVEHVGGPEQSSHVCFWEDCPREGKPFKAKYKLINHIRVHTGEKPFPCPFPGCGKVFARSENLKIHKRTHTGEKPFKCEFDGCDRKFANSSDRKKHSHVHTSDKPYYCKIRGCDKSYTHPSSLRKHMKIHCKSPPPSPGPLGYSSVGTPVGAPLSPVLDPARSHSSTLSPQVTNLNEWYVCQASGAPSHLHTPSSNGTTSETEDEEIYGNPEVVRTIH
Description: In the secondary screening, A375 cells overexpressing the ZIC5 protein (without a fusion protein) were subjected to the addition of the primary hit compound to a final concentration of 0.1 μM, 1 μM, 5 μM, or 10 μM and cultured, and then the cells were fixed on the next day. The fixed cells were subjected to staining by using an anti-ZIC5 antibody (clone: GTX104840) and an Alexa Fluor 568-anti-rabbit IgG antibody as a secondary antibody, and the amount of the ZIC5 protein was quantified using the imaging cytometer.

A375 melanoma cells = test: relative cell number in cells transfected with ZIC5 expression plasmid (Z5) or empty vector (C); type: cell-based, human; settings: 0.1 or 0.5 μM T-1, 10 nM T-2; 4 days; Z5 versus empty vector
Description: Specifically, a ZIC5 expression plasmid (Z5) or an empty vector (C) was introduced into A375 melanoma cells by transfection, and cells into which each of the plasmids had been introduced were selected. Next, these cells were subjected to the addition of 0.1 μM or 0.5 μM of the compound (T-1) or 10 nM of the compound (T-2) and cultured for 4 days. After the culturing, cell nuclei were stained with Hoechst, and the number of cells was counted with an imaging cytometer “IN Cell Analyzer 2000”. The number of cells, into which an empty vector had been introduced and which had not been subjected to the compound treatment, was set to 1, and the relative cell number of each kind of cell was determined. […] In the figure, “C” is for cells into which the empty vector has been introduced, and “Z5” is for cells into which the ZIC5 expression plasmid has been introduced.

[2] = system: ZIC5 high-expressing melanoma cell lines (A375 line, HT144 line); test: apoptosis induction rate after compound treatment; type: cell-based, human; design: dose or concentration left out as unconfirmed; settings: 48 hours
Description: (§1) The apoptosis induction rate (%) was measured as follows. First, a CellEvent Caspase-3/7 Green Detection Reagent (manufactured by Invitrogen Corporation) and Hoechst 33342 were added to each kind of cell, followed by incubation for 40 minutes. Next, the staining state of the cells after incubation was analyzed by using a DAPI filter and an FITC filter of an imaging cytometer “IN Cell Analyzer 2000” (manufactured by GE Healthcare). The proportion (%) of Caspase-3/7 active cells (CellEvent Caspase-3/7 Green Detection Reagent positive cells) with respect to all DAPI-stained cells (DAPI positive cells) was determined by “IN Cell Analyzer Workstation 3.7” (manufactured by GE Healthcare), and this was defined as the apoptosis induction rate (%). The statistical difference was determined according to the Tukey's multiple comparison test (n=3, *p<0.05, **p<0.01, ***p<0.001).
(§2) A total of 7 kinds of cells of 2 kinds of vemurafenib-resistant lines derived from human melanoma (an A375vemR line and an HT144vemR line), 2 kinds of ZIC5 high-expressing melanoma cell lines (an A375 line and an HT144 line), 2 kinds of ZIC5 low-expressing melanoma cell lines (a Colo829 line and an SKmel28 line), and a ZIC5 non-expressing normal human melanocyte cell (NHM) were treated with the compound (T-1) or compound (T-2), and regarding the cells that had been subsequently cultured for 48 hours, the apoptosis induction rate (%) was determined in the same manner as in Example 1. […]

[3] = system: ZIC5 low-expressing melanoma cell lines (Colo829 line, SKmel28 line); test: apoptosis induction rate after compound treatment; type: cell-based, human; design: dose or concentration left out as unconfirmed; settings: 48 hours
Description: as §1, §2

ZIC5 protein [4] = biological target: T1, ZIC5 protein; test: Western blotting of ZIC5 protein/GAPDH in A375 cells (none overexpressed); type: cell-based; settings: 0, 0.1, 0.5 or 1 μM; 48 hours
Description: Regarding the compound (T-1) and the compound (T-2), the effect on the amount of the intracellular ZIC5 protein was investigated according to the Western blotting method. Specifically, A375 cells (none was overexpressed therein) were subjected to the addition of the compound (T-1) or the compound (T-2) so that the concentration thereof was 0, 0.1, 0.5, or 1 μM, and the cells were cultured for 48 hours. The cells after being cultured were recovered, and Western blotting was carried out using an anti-ZIC5 antibody and an anti-GAPDH antibody. The amount of each protein was quantified from a density of a band in the Western blotting image.

A375 cells = test: relative cell number after compound then BRAF inhibitor vemurafenib; type: cell-based, human; settings: 0.5 μM T-1 or 50 nM T-2 for 48 hours, then vemurafenib 0.1 μM for 72 hours
Description: Specifically, 0.5 μM of the compound (T-1) or 50 nM of the compound (T-2) was added to A375 cells, culturing was carried out for 48 hours, and then vemurafenib was added thereto a concentration of 0.1 μM, and culturing was further carried out for 72 hours. After the culturing, cell nuclei were stained with Hoechst to count the number of cells. The number of cells of the A375 cells cultured without adding any compound was set to 1, and the relative cell number of each kind of cell was determined.

[5] = system: vemurafenib-resistant lines derived from human melanoma (A375vemR line, HT144vemR line); test: apoptosis induction rate after compound treatment; type: cell-based; design: dose or concentration left out as unconfirmed; settings: 48 hours
Description: as §1, §2

[6] = system: ZIC5 non-expressing normal human melanocyte cell (NHM); test: apoptosis induction rate after compound treatment; type: cell-based; design: dose or concentration left out as unconfirmed; settings: 48 hours
Description: as §1, §2

[7] = system: pancreatic cancer cell lines (AsPC-1, Panc-1, MiaPaca-2) and bile duct cancer cell line (RBE); test: apoptosis induction rate with gemcitabine after siRNA transfection; type: cell-based; settings: gemcitabine 0.1 μM, 48 hours
Description: as §1
Next, each kind of cell was introduced by transfection with siNeg and siZIC5 listed in Table 2 and cultured for 24 hours. Then, gemcitabine, which is a standard therapeutic drug for pancreatic cancer and bile duct cancer, was added thereto, the culture was further carried out for 48 hours, and then the apoptosis induction rate (%) was investigated.

Row | Compound | remaining activity at 0.1 µM (ZIC5 protein [1]) [%] | remaining activity at 1 µM (ZIC5 protein [1]) [%] | remaining activity at 5 µM (ZIC5 protein [1]) [%] | other results
1 | O=C1C=C2C(=CCOC2O)O1 (stereo not drawn) [Compound T-1] | 83.4 | 76.7 | – | apoptosis induction and suppression of cancer cell proliferation in ZIC5-overexpressing cells (Z5) (A375 melanoma cells): restored; apoptosis induction [2]: induced apoptosis; apoptosis induction ([3]; both ZIC5 low-expressing lines): did not induce apoptosis; relative amount of the ZIC5 protein ([amount of ZIC5 protein]/[amount of GAPDH protein]) (ZIC5 protein [4]): reduced depending on the concentrations; relative cell number in combination with vemurafenib (A375 cells): synergistically reduce the number of cells; apoptosis induction [5]: induced apoptosis; apoptosis induction [6]: did not induce apoptosis
2 | COc1cc(O)c2c(c1)/C=C/C[C@H](O)[C@H](O)C(=O)/C=C\C[C@H](C)OC2=O [Compound T-2] | 89.6 | 83.1 | 72.8 | remaining activity at 10 µM (ZIC5 protein [1]): 70.8%; apoptosis induction and suppression of cancer cell proliferation in ZIC5-overexpressing cells (Z5) (A375 melanoma cells): restored; apoptosis induction [2]: induced apoptosis; apoptosis induction ([3]; Colo829 line): induced apoptosis; apoptosis induction ([3]; SKmel28 line): did not induce apoptosis; relative amount of the ZIC5 protein ([amount of ZIC5 protein]/[amount of GAPDH protein]) (ZIC5 protein [4]): reduced depending on the concentrations; relative cell number in combination with vemurafenib (A375 cells): synergistically reduce the number of cells; apoptosis induction [5]: induced apoptosis; apoptosis induction [6]: did not induce apoptosis
3 | C=C1C(=O)O[C@H]2C1CC/C(C)=C\CC[C@@]1(C)O[C@H]21 (stereo partly drawn) [Compound T-3] | 89.8 | 98.2 | 55.3 | –
4 | C=C(C)[C@H]1O[C@H]2CC[C@@]3(C)[C@@](O)(CC[C@H]4C5OC(C)(C)[C@H]6C[C@@H]7C(=C)Cc8c(Cl)cc9[nH]c(c5c9c8[C@@]76O)[C@@]43C)[C@]23O[C@@H]3[C@H]1O (stereo partly drawn) [Compound T-4] | 111 | 96 | 75.4 | –
5 | CCCCCCCCCCCCC/C=C/[C@H](O)[C@H](N)CO [Compound T-5] | 108 | 118 | 62.6 | –
6 | CC(=O)O[C@H]1C[C@]2(O)[C@@H]3CC[C@@H]4C[C@@H](O)CC[C@]4(C)[C@H]3CC[C@]2(C)[C@H]1c1ccc(=O)oc1 [Compound T-7] | 103 | 76.4 | – | –
7 | CC(=O)O[C@H]1[C@H]2O[C@@]23[C@@H]2CC[C@]4(O)C[C@@H](O)CC[C@]4(C)[C@H]2CC[C@]3(C)[C@H]1c1ccc(=O)oc1 [Compound T-8] | 88.2 | 90.8 | 70.5 | remaining activity at 10 µM (ZIC5 protein [1]): 44.7%
8 | C[C@@H]1O[C@@H](O[C@@H]2C=C3CC[C@@H]4[C@H](CC[C@]5(C)[C@@H](c6ccc(=O)oc6)CC[C@]45O)[C@@]3(C)CC2)[C@H](O)[C@H](O)[C@H]1O [Compound T-10] | 70.2 | 42.1 | 50 | –
9 | C[C@@H]1O[C@@H](O[C@H]2C[C@@H](O)[C@]3(CO)[C@H]4[C@H](O)C[C@]5(C)[C@@H](C6=CC(=O)OC6)CC[C@]5(O)[C@@H]4CC[C@]3(O)C2)[C@H](O)[C@H](O)[C@H]1O [Compound T-11] | 90.6 | 67.8 | – | –
10 | C[C@@H]1O[C@@H](O[C@H]2CC[C@]3(C=O)[C@H]4CC[C@]5(C)[C@@H](c6ccc(=O)oc6)CC[C@]5(O)[C@@H]4CC[C@]3(O)C2)[C@H](O)[C@H](O)[C@H]1O[C@@H]1O[C@H](CO)[C@@H](O)[C@H](O)[C@H]1O [Compound T-12] | 76.8 | 72.5 | 57.1 | –
11 | Nc1ccn([C@@H]2O[C@H](CO)[C@@H](O)C2(F)F)c(=O)n1 [gemcitabine] | – | – | – | apoptosis induction [7]: apoptosis was induced
